From patent publication US20230053493A1, “ONE STEP METHODS, KITS, AND SYSTEMS FOR THE MEASUREMENT OF CONCENTRATIONS OF UNBOUND BILIRUBIN IN BIOLOGICAL FLUIDS” (priority 2019, published 2023)
Where a name gives a salt, the structure may show the parent alone. Blank lines part the entries; values can stand above or below the molecule they belong to.

How the values were obtained:
Albumin [1] = target: T1, Albumin (Homo sapiens, UniProt P02768); assay: Drug displacement of bilirubin from albumin / interference, Bf measured with one-step cartridges; assay type: in vitro ADME; details: percent increase of Bf for the 3x drug concentration relative to no drug; negative value = interference with the Bf sensor
T1 sequence (P02768 25-609): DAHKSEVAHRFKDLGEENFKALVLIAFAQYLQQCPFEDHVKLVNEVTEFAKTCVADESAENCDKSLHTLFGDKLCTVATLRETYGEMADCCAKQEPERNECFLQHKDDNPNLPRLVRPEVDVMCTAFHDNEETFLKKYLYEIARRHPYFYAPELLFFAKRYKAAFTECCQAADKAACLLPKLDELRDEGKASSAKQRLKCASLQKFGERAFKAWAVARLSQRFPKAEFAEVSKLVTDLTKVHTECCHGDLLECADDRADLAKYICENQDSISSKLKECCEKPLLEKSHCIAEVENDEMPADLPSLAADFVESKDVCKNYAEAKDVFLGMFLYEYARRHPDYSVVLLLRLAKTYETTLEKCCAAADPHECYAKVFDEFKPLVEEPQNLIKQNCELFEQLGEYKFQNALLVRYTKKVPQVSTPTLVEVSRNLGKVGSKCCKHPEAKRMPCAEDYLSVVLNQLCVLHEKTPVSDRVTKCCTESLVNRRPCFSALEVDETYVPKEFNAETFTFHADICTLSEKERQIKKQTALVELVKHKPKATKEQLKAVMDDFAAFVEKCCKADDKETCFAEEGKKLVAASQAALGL
Description: Premature infants who are at high risk for bilirubin neurotoxicity are of particular concern because NICU infants frequently receive medications. [Hsieh et al. Medication use in the neonatal intensive care unit. Am J Perinatol.

[2] = Interference of conjugated bilirubin (ditaurobilirubin) with Bf measurement, UBCheck vs Arrows UA-2; design: species or system human
Protocol: The potential interference of conjugated bilirubin with the bilirubin probes is determined by measuring the effect of ditaurobilirubin on the ability of the UBCheck to measure Bf accurately. We also compared the UBCheck results with measurements using the Arrows UB analyzer UA-2 method. The measurements are performed by spiking neonatal serum with unconjugated bilirubin to yield a Bf of approximately 10 nM and then titrating the spiked sample with ditaurobilirubin up to 20 mg/dl (FIG. 7). At each step Bf is measured by UBCheck and Arrows and the direct (conjugated) bilirubin concentration is determined using a Sigma direct bilirubin kit. At zero ditaurobilirubin both UBCheck and Arrows yield Bf of 10 nM but the direct bilirubin measurement yields a non-zero value of about 0.5 mg/dl (FIG. 7). With increasing concentrations of ditaurobilirubin UBCheck is unchanged but Arrows increases starting at about 0.5 mg/dl of ditaurobilirubin and then increases rapidly until 4 mg/dl ditaurobilirubin where the Arrow's assay saturates at Bf ≥50 nM. In contrast, the UBCheck only begins to increase at 4 mg/dl ditaurobilirubin where its Bf increase to about 12 nM, a 20% increase from the initial 10 nM level, and only at 20 mg/dl ditaurobilirubin does Bf increase to 33 nM.

[3] = Effect of hemoglobin/hemolysate on UBCheck Bf measurement; design: species or system human; details: bilirubin spiked neonatal serum; hemoglobin concentrations at least as high as 4 g/l; cartridges with Hb blocking peptide
Protocol: After the Bf responder and non-responder probes are applied to the Ni-polystyrene beads, the peptide of Table 4 is added to the beads and is attached through double HIS tags to the bead's Ni-NTAs. The combined probes plus peptide beads are then spotted onto cartridges. The effect of whole blood hemolysate was tested by titrating bilirubin spiked neonatal serum with increasing hemoglobin concentrations.

adult human albumin = adult human albumin (Homo sapiens, UniProt P02768); details: high affinity site; read-out: equilibrium dissociation constant (Kd) of bilirubin for adult human albumin; cited from earlier work
Chain of adult human albumin (P02768 25-609): as above

Albumin [4] = target: T1, Albumin; details: cefazolin 3.76 mM
[5] = Stability of non-responder probe 700/819 nm emission ratio in storage; assay type: physicochemical; details: at 1 and 6 days; absence of 700DX-maleimide
Description: All responder probes labeled with LICOR 700DX-maleimide and non-responder probes labeled with LICOR 800CW-maleimide probes in Tables 1 and 2, respectively have qualitatively similar dependencies on Bf. The probes differ mostly in protein expression, binding parameters (Kd, Ro and Rm) and stability. […] Although the non-responders are not characterized by bilirubin binding parameters, the emission spectrum of the 800CW-maleimide is sensitive to specific substitutions that can alter the LICOR 700DX-maleimide intensities. […] In some of these mutants the ratio of 700 to 819 nm increased from about 1% to 20% while in storage at 4° C. With suitable mutations this instability was eliminated.

[6] = Fluorescence intensities of Bf sensor with increasing total bilirubin (FIG. 1); assay type: binding; details: increasing BT; 675 nm excitation; probe 10 nM, free in aqueous buffer
Protocol: FIG. 1 depicts the intensities and ratios of intensities for a Bf sensor composed of the bilirubin responsive LICOR 700DX maleimide Mut:SEQ ID NO:2-76C probe (Table 1) and the bilirubin non-responder LICOR 800CW maleimide Mut:SEQ ID NO:1 B-73C probe (Table 2), both free in aqueous buffer, with increasing BT (total bilirubin) which at the concentrations used is primarily unbound bilirubin (Bf). Measurements of the 710 and 805 nm intensities at 675 nm excitation were performed at the probe concentrations of 1.5 nM and 10 nM, respectively in a Horiba Fluorolog 2.

[7] = Calibration of free NIR probe/sensor by bilirubin titration (cuvette fluorometry, fit with equation 1); assay type: binding
Description: Embodiments provided herein are directed to methods of calibrating the bilirubin probes by mixing in an aqueous media the sensor with samples of bilirubin of increasing total bilirubin concentrations (BT), measuring the ratio of fluorescence intensities R of the sensor at each concentration, and determining the calibration parameters (Kd, Rm, and Ro) from the measured fluorescence by fitting with the equation (1), wherein R is the measured fluorescence ratio (Iλ1/Iλ2), where hi is the fluorescence intensity from the first fluorophore at wavelength λ1 and Iλ2 is the fluorescence intensity from the second fluorophore at wavelength λ2, both λ1 and λ2 have background subtracted, and Ro is the ratio in the absence of bilirubin. BT is the total bilirubin concentration and PT is the concentration of the sensor, r is the Iλ2/Iλ1 ratio of the bilirubin sensitive probe's fluorescence in the absence of the second fluorophore, Kd is the equilibrium dissociation constant of the sensor and Rm is the ratio R extrapolated to infinite BT. Equation (1) is used in some embodiments rather than equation (5) of U.S. Pat. No. 9,529,003 when Rm is >0.
Also described are methods for calibrating and using a bilirubin sensor described herein so that Bf concentrations can be determined in approximately 5 μl of undiluted blood samples in a single step. These small volume blood samples are applied to the disposable plastic microfluidic cartridges containing the dried bilirubin ratio sensor. The bilirubin sensor containing cartridges are preferably used for a single measurement and the calibration parameters (Kd, Rm, Ro) must be determined within a “lot” of identically manufactured cartridges. The calibration is performed by titrating a sufficient number of cartridges with aqueous samples of increasing well-defined Bf levels. Because plastics bind unbound bilirubin and because surface to volume ratio in the microfluidics channel is large, the calibration Bf samples must be highly buffered by complexes with albumin. The Bf concentrations of each complex are determined by measuring each by cuvette fluorometry using a calibrated sensor free in aqueous solutions. The free sensor is calibrated by titration with aqueous solutions of bilirubin where the concentrations of these unbound bilirubin solutions are determined by absorbance. The free probe's response (R values versus Bf concentrations) are used to determine the free sensor's calibration (Kd, Rm, Ro) (equation 1). The calibrated free sensor mixed with samples of each of the BR:HSA complexes is used to determine the Bf concentrations of each complexes by cuvette fluorometry using equation 2. These calibrated complexes are used to determine the binding parameters of the disposable cartridges including the equilibrium dissociation constant (Kd), the minimum fluorescence ratio (Rm) and the initial ratio (Ro) under defined conditions, of temperature, pH, and solution composition, suitable for blood samples. Binding isotherms are performed in aqueous buffer by measuring the change in fluorescence of the bilirubin sensor in response to increasing bilirubin concentrations (“titration data”). The set of fluorescence responses at each bilirubin concentration are fitted with an appropriate equation (“calibration equation (3)”) that correctly describes the fluorescence response as a function of the Bf concentration, the, specific spectroscopic characteristics, and the Kd.
All responder probes labeled with LICOR 700DX-maleimide and non-responder probes labeled with LICOR 800CW-maleimide probes in Tables 1 and 2, respectively have qualitatively similar dependencies on Bf. The probes differ mostly in protein expression, binding parameters (Kd, Ro and Rm) and stability. […] Although the non-responders are not characterized by bilirubin binding parameters, the emission spectrum of the 800CW-maleimide is sensitive to specific substitutions that can alter the LICOR 700DX-maleimide intensities. […]

Displacement or Interference (Albumin [1]): −98%
Molecule: CC(=O)S[C@@H]1CC2=CC(=O)CC[C@]2(C)[C@H]2CC[C@@]3(C)[C@@H](CC[C@@]34CCC(=O)O4)[C@H]12 [Spironolactone]

Displacement or Interference (Albumin [1]): 76%
Molecule: CC(C)(O/N=C(\C(=O)N[C@@H]1C(=O)N2C(C(=O)[O-])=C(C[n+]3ccccc3)CS[C@H]12)c1csc(N)n1)C(=O)O [Ceftazidime sodium salt]

Displacement or Interference (Albumin [1]): 1626%
Molecule: NS(=O)(=O)c1cc2c(cc1Cl)N=CNS2(=O)=O [Chlorothiazide]

Displacement or Interference (Albumin [1]): 157%
Molecule: CO/N=C(\C(=O)N[C@@H]1C(=O)N2C(C(=O)O)=C(COC(C)=O)CS[C@H]12)c1csc(N)n1 [Cefotaxime]

Displacement or Interference (Albumin [1]): 820%
Molecule: NS(=O)(=O)c1cc(C(=O)O)c(NCc2ccco2)cc1Cl [Furosemide]

Continued, molecule first:

Molecule: Cc1nnc(SCC2=C(C(=O)O)N3C(=O)[C@@H](NC(=O)Cn4cnnn4)[C@H]3SC2)s1 [Cefazolin sodium salt]
Displacement or Interference (Albumin [1]): 524%

Molecule: ditaurobilirubin
Bf (assay saturates) ([2]; Arrows UA-2, samples diluted 52-fold, 4 mg/dl ditaurobilirubin): ≥ 50 nM
increase of Bf from the initial 10 nM level ([2]; UBCheck, 4 mg/dl ditaurobilirubin): 20%
Bf ([2]; UBCheck, 4 mg/dl ditaurobilirubin, neonatal serum spiked to Bf of approximately 10 nM): about 12 nM
Bf ([2]; UBCheck, 20 mg/dl ditaurobilirubin): 33 nM

Molecule: hemoglobin
Bf concentration relative to zero hemoglobin [3]: unaffected

Molecule: C=CC1=C(C)/C(=C/c2[nH]c(Cc3[nH]c(/C=C4\NC(=O)C(C)=C4C=C)c(C)c3CCC(=O)O)c(CCC(=O)O)c2C)NC1=O [bilirubin]
Kd (adult human albumin): ~20 nM

Molecule: C[C@@H]1[C@H](O)[C@@H](C)/C=C/C=C/C=C/C=C/C=C/C=C/C=C/[C@H](O[C@@H]2O[C@H](C)[C@@H](O)[C@H](N)[C@@H]2O)C[C@@H]2O[C@](O)(C[C@@H](O)C[C@@H](O)[C@H](O)CC[C@@H](O)C[C@@H](O)CC(=O)O[C@H]1C)C[C@H](O)[C@H]2C(=O)O [Amphotericin B]
Displacement or Interference (Albumin [1]): 199%

Molecule: Cc1onc(-c2ccccc2)c1C(=O)N[C@@H]1C(=O)N2[C@@H]1SC(C)(C)[C@@H]2C(=O)O [Oxacillin]
Displacement or Interference (Albumin [1]): 616%

Molecule: Cc1nnc(SCC2=C(C(=O)O)N3C(=O)[C@@H](NC(=O)Cn4cnnn4)[C@H]3SC2)s1 [Cefazolin]
Bf larger in the UBCheck than Arrows (Albumin [4]): ~5 fold

B1: Mut:SEQ ID NO:1 B-73C: non-responder rat FABP mutein 20R 27A 29R 72A 73C 74F 100R 126W 131D-C2XH11 labeled with LICOR 800CW-maleimide (protein)
chain: AFDGTWKVDRNENYEKFMERMGINVVARRLGAHDNLKLTITQEGNKFTVKESSNFRNIDVVFELGVDFAYSACFGTELTGTWTMEGNKLVGKFKRVDNGRELIAVREISGNELIQTYTYEGVEAKWIFKKDRGAASHHHHHHSHRATPNTSPHHHHHHH
modifications: LICOR 800CW-maleimide label; nonresponder mutated probe
notes: non-responder rat FABP mutein 20R 27A 29R 72A 73C 74F 100R 126W 131D-C2XH11 labeled with LICOR 800CW-maleimide
700/819 ratio [5]: 1%
intensity change (cv) of LICOR 800CW maleimide measured at 805 nm [6]: 2.5%

B2: 27C-C2XH11-700DXM: rIFABP mutein MGI-KR14-14R 18L 27C 38V 60R 73F 106L 115R 117D 131D-C2XH11 labeled with LICOR 700DX-maleimide (protein)
chain: MGIAFDGTWRVDRNENRERFLERMGINVVCRRLGAHDNLRVTITQEGNRFTVRESSNFRNIDRVFELGVDFAYSLFDGTELTGTWTMEGNRLVGRFRRVDNGRELIAVLEISGNELIRTDTYEGVEARRIFRRDRGAASHHHHHHSHRATPNTSPHHHHHHH
modifications: C2XH11 tag; LICOR 700DX-maleimide label; mutated bf sensitive probe
notes: rIFABP mutein MGI-KR14-14R 18L 27C 38V 60R 73F 106L 115R 117D 131D-C2XH11 labeled with LICOR 700DX-maleimide
Qs (Rm/Ro) ([7]; degree to which the probe is quenched by bilirubin binding, effect of fluorophore position): 0.21
Kd ([7]; effect of fluorophore (cysteine) position, responder probe labeled with 700DX-maleimide): 30 nM
